# Reference: patent US10166221B2, “Formulations of an LSD1 inhibitor” (Incyte Corporation, priority 2016, dated 2019)
# Where a name gives a salt, the structure may show the parent alone.
# Columns and labels:
# [1] = Crystalline form change under storage conditions; format: physicochemical; settings: storage conditions of 25° C./60% RH and 40° C./75% RH
# Procedure: (§1) Form HI of Compound 1 di-tosylate salt was prepared during the process of drying a wet sample of Compound 1 di-tosylate salt, Form I, under ambient conditions. Form I slowly absorbed atmospheric moisture and gradually changed to crystalline Form HI.
# as §1, with “HI. […] Form HI can also be generated by purging humidified air (e.g., 60-85% RH) through Form I solid.” for “HI.”
# [2] = Excipient compatibility, UV HPLC method (degradation, impurities other than Compound 2)
# Procedure: This study was performed to determine stability of Compound 1 di-tosylate salt, Form I, in combination with various oral solid dosage form excipients. […] The data of the blends were compared with a control sample (Compound 1 di-tosylate salt alone) to assess the effect of each excipient relative to Compound 1 di-tosylate salt alone.
# Blends were prepared by screening the components together; aliquots were then weighed for stability testing. The binary blend samples were initially stored under accelerated conditions (50° C./dry, 50° C./75% RH) in open glass vials and analyzed by HPLC to determine the potential for drug substance degradation with each excipient. […] Analysis of a control (Compound 1 di-tosylate salt alone) was included for comparison at each condition.
# Compound 1 di-tosylate salt was blended at the desired ratio of excipient to drug (see Table 7 below) by weighing each material, mixing with a spatula in a vial, and screening the mixture 5 times with an 18 mesh screen. A control sample was included for comparison to the blends. The weight equivalent of approximately 4 mg of Compound 1 di-tosylate salt was added to each glass vial and initially set-up at 50° C./dry (<20% RH) and 50° C./75% RH. Based on results after 1 week at 50° C.; additional samples were set-up at 40° C./dry and 40° C./75% RH. […] The 75% RH chamber was maintained by using a saturated sodium chloride solution in water (inside a closed chamber). The humidity of the 75% RH chamber was verified with a hygrometer (VWR brand). Samples were tested by HPLC after 1 week at 50° C. and 1 and 2 weeks at 40° C. (low and high RH at both temperatures). Data were also measured for samples at 20° C. in closed vials.
# Samples were analyzed by HPLC using the method described below after dilution in 85% H2O (0.1% TFA)/15% acetonitrile to 4 mL, sonication for 5 minutes, and filtration (0.45 μm Acrodisc GHP). One injection per sample was performed at each stability station. Two methods were performed on the stability samples: a UV based HPLC method and a mass spectroscopy HPLC method performed for one impurity (Compound 2).
# UV HPLC Method-Instrument: Agilent 1260 HPLC; Column: Ascentis Express C18 4.6×150 mm; Mobile Phase A: Water (0.1% TFA); Mobile Phase B: Acetonitrile (0.1% TFA); Flow Rate: 1.0 mL/min; Injection volume: 10 μL; UV Detection 214 nm; Column Temperature: 30° C.; Run Time: 33 min; Sample concentration: 1.0 mg/mL as salt; Threshold: 0.1%; Gradient Program:
# Accelerated storage (50° C., 40° C.) conditions were used to identify potential drug-excipient interactions.
# [3] = Excipient compatibility, mass spectroscopy HPLC method (% Compound 2); format: physicochemical
# From the text: (low and high RH at both temperatures).
# [4] = DVS moisture uptake analysis; format: physicochemical
# Procedure: Form DH was characterized by DVS. The DVS analysis was performed on a TA Instruments Vapor Sorption Analyzer, model VTI-SA^+. Form DH was generated by pre-drying Form HI on VTI at 40° C. with 0% RH N2 for 3 h. Then the moisture uptake profile was completed in one cycle in 5% RH increments with adsorption from 0% RH to 95% RH followed by desorption in 5% increments from 95% to […]. The equilibration criteria were 0.0010 wt % in 5 minutes with a maximum equilibration time of 180 minutes. All adsorption and desorption were performed at 25° C.
compound,measurement,setting,value
"COCC1(CN[C@@H]2C[C@H]2c2ccccc2)CCN(CC2(C(=O)O)CCC2)CC1 [Cmpd 1 di-tosylate salt alone, 1-{[4-(methoxymethyl)-4-({[(1R,2S)-2-phenylcyclopropyl]amino}methyl)piperidin-1-yl]methyl}cyclobutanecarboxylic acid bis(4-methylbenzenesulfonate)]",Crystalline form change on storage,[1],converted to Form HI
same,Compound 1 di-tosylate salt degradation (UV Method),[2]; 1 W 40° C./75% RH,<0.1%
same,Compound 1 di-tosylate salt degradation (UV Method),[2]; 1 W 40° C./dry,0.43%
same,Compound 1 di-tosylate salt degradation (UV Method),"[2]; 1 w 50° C./75% RH, open glass vials, peak area percent",0.3%
same,Compound 1 di-tosylate salt degradation (UV Method),"[2]; 1 w 50° C./dry (<20% RH), open glass vials, peak area percent",1.4%
same,Compound 1 di-tosylate salt degradation (UV Method),[2]; 2 W 40° C./75% RH,<0.1%
same,Compound 1 di-tosylate salt degradation (UV Method),[2]; 2 W 40° C./dry,0.86%
same,20° C. 2 w UV method,"[2]; 20° C., 2 w, closed vials",<0.1%
same,% Compound 2,[3]; 1 w 50° C./75% RH,2.47%
same,% Compound 2,[3]; 1 w 50° C./dry,2.37%
same,2 W 20° C. % of cmpd 2,"[3]; 20° C., 2 w, closed vials",0.43%
same,wt % of Compound 2,[3]; 40° C. (dry) 1 W,1.4 wt %
same,wt % of Compound 2,[3]; 40° C. (dry) 2 W,3.4 wt %
same,wt % of Compound 2,[3]; 40° C./75% RH 1 w,1.3 wt %
same,wt % of Compound 2,[3]; 40° C./75% RH 2 w,1.9 wt %
COCC1(CN[C@@H]2C[C@H]2c2ccccc2)CCN(CC2(C(=O)O)CCC2)CC1 [Form DH],Hygroscopicity (DVS),"[4]; adsorption 0% RH to 95% RH, desorption 95% to 85% RH, 25° C.",hygroscopic
same,Solid collected after DVS,[4]; after DVS at 85% RH,Form HI
